Measurements from paper PMC12391581 (Antiviral Research, 2025).
Values joined by “and” are separate entries in the source; they are usually repeats but may differ in a detail not shown here. Identical values can stand only once. Marks after values point to notes of the source that are not given here.

Experiments:
[1] = tested on: neuraminidase (NA) of B/Victoria-lineage viruses; type: biochemical, influenza B/Victoria-lineage virus
[2] = tested on: neuraminidase (NA) of A(H1N1)pdm09 viruses; type: biochemical, influenza A(H1N1)pdm09 virus
[3] = tested on: neuraminidase (NA) of A(H3N2) viruses; type: biochemical, influenza A(H3N2) virus
A(H3N2) viruses [4] = type: cell-based, influenza A(H3N2) virus
A(H3N2) viruses [5] = type: cell-based, influenza A(H3N2) virus; remark: listed apart in the source
A(H1N1)pdm09 viruses = type: cell-based, influenza A(H1N1)pdm09 virus

CCC(CC)[C@H](NC(C)=O)[C@@H]1[C@H](O)[C@@H](C(=O)O)C[C@H]1N=C(N)N [Peramivir, peramivir]
Fold-change in IC50 [1]: 158 fold | IC50 fold-change compared to reference median IC50 values [1]: 158 fold | NAI inhibition phenotype (NI/RI/HRI) [1]: HRI (key: normal inhibition (NI) is a <5-fold increase in the NAI IC50; RI is a 5- to 50-fold increase; HRI is a >50-fold increase) | NAI inhibition phenotype (NI/RI/HRI) [2]: HRI (key: normal inhibition (NI) is a <10-fold increase in the NAI IC50; RI is a 10- to 100-fold increase; HRI is a >100-fold increase)

CC(=O)N[C@H]1[C@H]([C@H](O)[C@H](O)CO)OC(C(=O)O)=C[C@@H]1N=C(N)N [Zanamivir, zanamivir]
Fold-change in IC50 [3]: 10.16 fold | IC50 fold-change compared to reference median IC50 values [3]: 10.16 fold | NAI inhibition phenotype (NI/RI/HRI) [3]: RI (key: normal inhibition (NI) is a <10-fold increase in the NAI IC50; RI is a 10- to 100-fold increase; HRI is a >100-fold increase) | IC50 fold-change (borderline RI) [1]: 5.76- to 6.25 fold

COC(=O)OCOc1c2n(ccc1=O)N([C@@H]1c3ccccc3SCc3c1ccc(F)c3F)[C@@H]1COCCN1C2=O [Baloxavir, baloxavir marboxil]
HINT fold-change compared to PA-sequence matched virus (A(H3N2) viruses [4]): 4.4 fold | IRINA fold-change compared to PA-sequence matched virus (A(H3N2) viruses [5]): 4.8 fold | EC50 fold-change compared to reference median EC50 values (A(H1N1)pdm09 viruses): 2.72 fold and 2.72 ^e fold | Fold change in EC50 (A(H1N1)pdm09 viruses): 2.72^d fold | baloxavir susceptibility phenotype (A(H1N1)pdm09 viruses): RS (key: RS to baloxavir is provisionally defined as >3-fold change in EC50 of a test virus compared to the subtype/lineage-specific median EC50 values)

[H]/N=C(\N)N[C@H]1C=C(C(=O)O)O[C@@H]([C@H](OC)[C@H](O)CO)[C@@H]1NC(C)=O [Laninamivir, laninamivir]
Fold-change in IC50 [1]: 0.91 fold | IC50 fold-change compared to reference median IC50 values [1]: 0.91 fold

CCOC(=O)C1=C[C@@H](OC(CC)CC)[C@H](NC(C)=O)[C@@H](N)C1 [Oseltamivir, oseltamivir]
Fold-change in IC50 [3]: 1.86 fold | IC50 fold-change compared to reference median IC50 values [3]: 1.86 fold
